# Patent US8835134B2, “Cycloastragenol monoglucoside, preparation, pharmaceutical composition and application thereof” (Tianjin Institute of Pharmaceutical Research, priority 2007, dated 2014)
# Tested on: anesthetized open-chest dogs
# Assay: Hemodynamics of anesthetized open-chest dogs, intravenous infusion
# Type: in vivo, mongrel dogs
# Details: 0.15 mg/kg iv
# Experimental: The animals were anesthetized by intravenous injection of 30 mg/kg sodium pentobarbital, tracheally intubated, and mechanically ventilated with positive air pressure. Left thoracotomy was performed through the fourth intercostal space and the heart was suspended in a pericardial cradle, the aortic root was isolated and a probe of blood flow meter (12 or 14 mm in diameter) was fixed to measure the aortic blood flow as a representation of cardiac output (CO), the circumflex branch of left coronary artery was isolated and a probe of blood flow meter (2 or 2.5 mm in diameter) was fixed to measure the coronary blood flow (CBF). A polyethylene catheter filled with heparin physiological saline was inserted through cardiac apex into the left ventricle to measure the left ventricular pressure (LVP) and left ventricular end-diastolic pressure (LVEDP), Peak positive and peak negative first derivatives of the LVP (+ LVdp/dt and − LVdp/dt) were calculated with the Acknowledge software. The systolic blood pressure (SBP), diastolic blood pressure (DBP) and mean arterial pressure (MAP) were measured by polyethylene catheter via the femoral artery, ECG □ was measured by a AC-601G ECG amplifier. The above-mentioned analog signal was input into a data acquisition workstation (MP100, BIOPAC Systems, USA) to a computer running Acknowledge (version 3.7.1).
# After surgery, various indexes before administration were recorded until the indexes were stable, and then intravenous infusion administration was conducted. Thirty dogs were divided into five groups (six dogs in each group), the experiment groups were given 0.15, 0.3, 0.6 mg/kg of ASP-[…] respectively, the normal control group was given 1 ml/kg of solvent, and the positive control group was given 0.3 mg/kg of astragaloside IV. The delivery volumes were 15 ml for each dog was and the delivery velocity was 1 ml/min. The indexes were recorded at 5, 10, 15, 20, 30, 45, 60, 90 and 120 mins after drug administration. At the end of experiment, the hearts were excised and weighted. The myocardial blood flow for per hectogram (CF), coronary resistance (CR), cardiac index (CI), left ventricular work (LVW) and total peripheral resistance (TPR) were calculated according to the following formulae: CF=CBF×[…]/heart weight CR=MAP/CF CI=CO/0.11×(body weight)^2/3 LVW=CO×(MAP−5)×1.052×0.0136 TPR=MAP×79.92/CO
# Data are expressed as mean±SD ( x±s), the paired t-test was used to compare the significance between before and after administration, the unpaired t-test was adopted for comparison between groups.
structure (smiles),measurement,setting,value
"CC(C)(O)[C@@H]1CC[C@](C)([C@H]2[C@@H](O)C[C@@]3(C)C4C[C@H](OC5OC(CO)C(O)C(O)C5O)C5C(C)(C)[C@@H](O)CC[C@@]56C[C@@]46CC[C@]23C)O1 (stereo partly drawn) [CMG, Cycloastragenol-6-O-β-D-glucoside]",LVEDP maximum decrease,,1.1±0.4 mmHg
same,CF,5 min after administration,57 ± 21.7 ml/min/100 g
same,CF change vs before administration,5 min after administration,(−0.7 ± 3.6) ml/min/100 g
same,CI,5 min after administration,2.15 ± 0.65 L/min/m^2
same,CI change vs before administration,5 min after administration,(0.07 ± 0.16) L/min/m^2
same,CO,5 min after administration,1.24 ± 0.38 L/min
same,CO change vs before administration,5 min after administration,(0.04 ± 0.09) L/min
same,CR,5 min after administration,1.35 ± 0.42 mmHg/ml/min/100 g
same,CR change vs before administration,5 min after administration,(−0.01 ± 0.08) mmHg/ml/min/100 g
same,LVEDP,5 min after administration,1.0 ± 2.3 mmHg
same,LVEDP change vs before administration,5 min after administration,(−0.78 ± 0.61) mmHg
same,LVP,5 min after administration,105 ± 21 mmHg
same,LVP change vs before administration,5 min after administration,(0.1 ± 3.4) mmHg
same,LVW,5 min after administration,1.15 ± 0.43 kg · m
same,LVW change vs before administration,5 min after administration,(0.03 ± 0.17) kg · m
same,TPR,5 min after administration,4967 ± 2135 dyn · s/cm^5
same,TPR change vs before administration,5 min after administration,(−183 ± 313) dyn · s/cm^5
same,dp/dt,5 min after administration,1205 ± 417 mmHg/s
same,dp/dt change vs before administration,5 min after administration,(56 ± 94) mmHg/s
same,−dp/dt,5 min after administration,−865 ± 286 mmHg/s
same,−dp/dt change vs before administration,5 min after administration,(22 ± 65) mmHg/s
same,CF,10 min after administration,55.9 ± 21.6 ml/min/100 g
same,CF change vs before administration,10 min after administration,(−1.8 ± 5.0) ml/min/100 g
same,CI,10 min after administration,2.26 ± 0.55 L/min/m^2
same,CI change vs before administration,10 min after administration,(0.18 ± 0.20) L/min/m^2
same,CO,10 min after administration,1.31 ± 0.32 L/min
same,CO change vs before administration,10 min after administration,(0.10 ± 0.12) L/min
same,CR,10 min after administration,1.36 ± 0.42 mmHg/ml/min/100 g
same,CR change vs before administration,10 min after administration,(0.00 ± 0.11) mmHg/ml/min/100 g
same,LVEDP,10 min after administration,1.0 ± 2.3 mmHg
same,LVEDP change vs before administration,10 min after administration,(−0.73 ± 0.49) mmHg
same,LVP,10 min after administration,103 ± 22 mmHg
same,LVP change vs before administration,10 min after administration,(−1.5 ± 3.7) mmHg
same,LVW,10 min after administration,1.18 ± 0.34 kg · m
same,LVW change vs before administration,10 min after administration,(0.06 ± 0.19) kg · m
same,TPR,10 min after administration,4568 ± 1871 dyn · s/cm^5
same,TPR change vs before administration,10 min after administration,(−582 ± 652) dyn · s/cm^5
same,dp/dt,10 min after administration,1173 ± 407 mmHg/s
same,dp/dt change vs before administration,10 min after administration,(23 ± 110) mmHg/s
same,−dp/dt,10 min after administration,−883 ± 288 mmHg/s
same,−dp/dt change vs before administration,10 min after administration,(5 ± 36) mmHg/s
same,CF,15 min after administration,55.9 ± 22.2 ml/min/100 g
same,CF change vs before administration,15 min after administration,(−1.8 ± 5.8) ml/min/100 g
same,CI,15 min after administration,2.09 ± 0.45 L/min/m^2
same,CI change vs before administration,15 min after administration,(0.01 ± 0.24) L/min/m^2
same,CO,15 min after administration,1.21 ± 0.26 L/min
same,CO change vs before administration,15 min after administration,(0.00 ± 0.15) L/min
same,CR,15 min after administration,1.32 ± 0.38 mmHg/ml/min/100 g
same,CR change vs before administration,15 min after administration,(−0.03 ± 0.14) mmHg/ml/min/100 g
same,LVEDP,15 min after administration,1.0 ± 2.3 mmHg
same,LVEDP change vs before administration,15 min after administration,(−0.73 ± 0.60) mmHg
same,LVP,15 min after administration,103 ± 25 mmHg
same,LVP change vs before administration,15 min after administration,(−2.0 ± 4.7) mmHg
same,LVW,15 min after administration,1.08 ± 0.31 kg · m
same,LVW change vs before administration,15 min after administration,(−0.04 ± 0.19) kg · m
same,TPR,15 min after administration,4612 ± 1333 dyn · s/cm^5
same,TPR change vs before administration,15 min after administration,(−538 ± 1075) dyn · s/cm^5
same,dp/dt,15 min after administration,1170 ± 449 mmHg/s
same,dp/dt change vs before administration,15 min after administration,(20 ± 113) mmHg/s
same,−dp/dt,15 min after administration,−875 ± 288 mmHg/s
same,−dp/dt change vs before administration,15 min after administration,(13 ± 49) mmHg/s
same,CF,20 min after administration,54.3 ± 20.4 ml/min/100 g
same,CF change vs before administration,20 min after administration,(−3.4 ± 4.4) ml/min/100 g
same,CI,20 min after administration,2.05 ± 0.45 L/min/m^2
same,CI change vs before administration,20 min after administration,(−0.03 ± 0.26) L/min/m^2
same,CO,20 min after administration,1.19 ± 0.27 L/min
same,CO change vs before administration,20 min after administration,(−0.02 ± 0.15) L/min
same,CR,20 min after administration,1.35 ± 0.39 mmHg/ml/min/100 g
same,CR change vs before administration,20 min after administration,(0.00 ± 0.13) mmHg/ml/min/100 g
same,LVEDP,20 min after administration,1.2 ± 2.4 mmHg
same,LVEDP change vs before administration,20 min after administration,(−0.62 ± 0.47) mmHg
same,LVP,20 min after administration,101 ± 21 mmHg
same,LVP change vs before administration,20 min after administration,(−3.8 ± 5.1) mmHg
